Test results published in ChEMBL document CHEMBL1275247, “Pharmacokinetics and safety of CXA-101, a new antipseudomonal cephalosporin, in healthy adult male and female subjects receiving single- and multiple-dose intravenous infusions” (Antimicrob Agents Chemother, 2010).

Tests used:
[1] = Cmax in healthy human at 1500 mg, iv administered as single dose as 1 hr iv infusion; type: ADME, organism-based; set-up: dose 1500 mg, route intravenous; details: in vivo
[2] = Tmax in healthy human at 2000 mg, iv administered as single dose as 1 hr iv infusion; type: ADME, organism-based; details: in vivo
[3] = system: Homo sapiens; test: Toxicity in healthy human assessed as occurrence of headache at 1500 mg, iv administered as single dose as 1 hr iv infusion; type: organism-based; details: in vivo
[4] = Half-life in plasma of healthy human 1500 mg, iv administered as 1 hr infusion every 12 hrs for 10 days measured on day 10; type: ADME, organism-based
[5] = Volume of distribution at steady state in healthy human at 1000 mg, iv administered as single dose as 1 hr iv infusion; type: ADME, organism-based; details: in vivo
[6] = AUC (0 to infinity) in healthy human at 500 mg, iv administered as single dose as 1 hr iv infusion; type: ADME, organism-based; set-up: dose 500 mg, time infinity, route intravenous; details: plasma
[7] = Renal clearance in healthy human at 500 mg, iv administered as 1 hr infusion every 8 hrs for 10 days measured on day 1; type: ADME, organism-based, Kidney; details: in vivo, read-out: CL_renal
[8] = Cmax in healthy human at 500 mg, iv administered as 1 hr infusion every 8 hrs for 10 days measured on day 1; type: ADME, organism-based; set-up: dose 500 mg, route intravenous; details: in vivo
[9] = Half-life in plasma of healthy human 500 mg administered as single ascending dose, iv for 1 hr infusion; type: ADME, organism-based
[10] = Volume of distribution at steady state in healthy human at 1500 mg, iv administered as 1 hr infusion every 12 hrs for 10 days measured on day 1; type: ADME, organism-based; details: in vivo
[11] = Volume of distribution at steady state in healthy human at 500 mg, iv administered as single dose as 1 hr iv infusion; type: ADME, organism-based; details: in vivo
[12] = Half-life in plasma of healthy human 250 mg administered as single ascending dose, iv for 1 hr infusion; type: ADME, organism-based
[13] = Drug recovery in urine of healthy human at 1000 mg, iv administered as 1 hr infusion every 8 hrs for 10 days measured on day 1; type: ADME, organism-based; details: read-out: Activity
[14] = Volume of distribution at steady state in healthy human at 1000 mg, iv administered as 1 hr infusion every 8 hrs for 10 days measured on day 1; type: ADME, organism-based; details: in vivo
[15] = Mean residence time in healthy human at 1500 mg, iv administered as 1 hr infusion every 12 hrs for 10 days measured on day 1; type: ADME, organism-based; details: in vivo
[16] = AUC (0 to infinity) in healthy human at 500 mg, iv administered as 1 hr infusion every 8 hrs for 10 days measured on day 10; type: ADME, organism-based; set-up: dose 500 mg, time infinity, route intravenous; details: plasma
[17] = Tmax in healthy human at 1500 mg, iv administered as 1 hr infusion every 12 hrs for 10 days measured on day 1; type: ADME, organism-based; details: in vivo
[18] = Clearance in healthy human at 1500 mg, iv administered as 1 hr infusion every 12 hrs for 10 days measured on day 1; type: ADME, organism-based; details: in vivo
[19] = AUC (0 to infinity) in healthy human at 1500 mg, iv administered as 1 hr infusion every 12 hrs for 10 days measured on day 10; type: ADME, organism-based; set-up: dose 1500 mg, route intravenous, time infinity; details: plasma
[20] = Cmax in healthy human at 2000 mg, iv administered as single dose as 1 hr iv infusion; type: ADME, organism-based; set-up: dose 2000 mg, route intravenous; details: in vivo
[21] = AUC (0 to infinity) in healthy human at 250 mg, iv administered as single dose as 1 hr iv infusion; type: ADME, organism-based; set-up: dose 250 mg, route intravenous, time infinity; details: plasma
[22] = Mean residence time in healthy human at 500 mg, iv administered as 1 hr infusion every 8 hrs for 10 days measured on day 1; type: ADME, organism-based; details: in vivo
[23] = AUC (0 to infinity) in healthy human at 1500 mg, iv administered as 1 hr infusion every 12 hrs for 10 days measured on day 1; type: ADME, organism-based; set-up: dose 1500 mg, route intravenous, time infinity; details: plasma
[24] = Renal clearance in healthy human at 250 mg, iv administered as single dose as 1 hr iv infusion; type: ADME, organism-based, Kidney; details: in vivo, read-out: CL_renal
[25] = Drug recovery in urine of healthy human at 1000 mg, iv administered as 1 hr infusion every 8 hrs for 10 days measured on day 10; type: ADME, organism-based; details: read-out: Activity
[26] = Volume of distribution at steady state in healthy human at 1500 mg, iv administered as 1 hr infusion every 12 hrs for 10 days measured on day 10; type: ADME, organism-based; details: in vivo
[27] = Clearance in healthy human at 500 mg, iv administered as single dose as 1 hr iv infusion; type: ADME, organism-based; details: in vivo
[28] = Tmax in healthy human at 500 mg, iv administered as single dose as 1 hr iv infusion; type: ADME, organism-based; details: in vivo
[29] = system: Homo sapiens; test: Toxicity in healthy human assessed as occurrence of diarrhea at 500 mg, iv administered as 1 hr infusion every 8 hrs for 10 days; type: organism-based; details: in vivo
[30] = Cmax in healthy human at 500 mg, iv administered as single dose as 1 hr iv infusion; type: ADME, organism-based; set-up: dose 500 mg, route intravenous; details: in vivo
[31] = AUC (0 to infinity) in healthy human at 1000 mg, iv administered as 1 hr infusion every 8 hrs for 10 days measured on day 10; type: ADME, organism-based; set-up: dose 1000 mg, time infinity, route intravenous; details: plasma
[32] = Mean residence time in healthy human at 250 mg, iv administered as single dose as 1 hr iv infusion; type: ADME, organism-based; details: in vivo
[33] = Volume of distribution at steady state in healthy human at 250 mg, iv administered as single dose as 1 hr iv infusion; type: ADME, organism-based; details: in vivo
[34] = Clearance in healthy human at 1000 mg, iv administered as 1 hr infusion every 8 hrs for 10 days measured on day 10; type: ADME, organism-based; details: in vivo
[35] = Mean residence time in healthy human at 2000 mg, iv administered as single dose as 1 hr iv infusion; type: ADME, organism-based; details: in vivo
[36] = Half-life in plasma of healthy human 500 mg, iv administered as 1 hr infusion every 8 hrs for 10 days measured on day 10; type: ADME, organism-based
[37] = Tmax in healthy human at 500 mg, iv administered as 1 hr infusion every 8 hrs for 10 days measured on day 10; type: ADME, organism-based; details: in vivo
[38] = AUC (0 to infinity) in healthy human at 1000 mg, iv administered as 1 hr infusion every 8 hrs for 10 days measured on day 1; type: ADME, organism-based; set-up: dose 1000 mg, time infinity, route intravenous; details: plasma
[39] = system: Homo sapiens; test: Toxicity in healthy human assessed as occurrence of paraesthesia at 500 mg, iv administered as 1 hr infusion every 8 hrs for 10 days; type: organism-based; details: in vivo
[40] = Tmax in healthy human at 1000 mg, iv administered as 1 hr infusion every 8 hrs for 10 days measured on day 1; type: ADME, organism-based; details: in vivo
[41] = Clearance in healthy human at 500 mg, iv administered as 1 hr infusion every 8 hrs for 10 days measured on day 10; type: ADME, organism-based; details: in vivo
[42] = Renal clearance in healthy human at 2000 mg, iv administered as single dose as 1 hr iv infusion; type: ADME, organism-based, Kidney; details: in vivo, read-out: CL_renal
[43] = Half-life in plasma of healthy human 1500 mg, iv administered as 1 hr infusion every 12 hrs for 10 days measured on day 1; type: ADME, organism-based
[44] = Renal clearance in healthy human at 1500 mg, iv administered as single dose as 1 hr iv infusion; type: ADME, organism-based, Kidney; details: in vivo, read-out: CL_renal
[45] = Renal clearance in healthy human at 1000 mg, iv administered as single dose as 1 hr iv infusion; type: ADME, organism-based, Kidney; details: in vivo, read-out: CL_renal
[46] = Half-life in plasma of healthy human 2000 mg administered as single ascending dose, iv for 1 hr infusion; type: ADME, organism-based

Cn1c(N)c(NC(=O)NCCN)c[n+]1CC1=C(C(=O)O)N2C(=O)[C@@H](NC(=O)/C(=N\OC(C)(C)C(=O)[O-])c3nsc(N)n3)[C@H]2SC1 [CEFTOLOZANE]
Cmax [1]: 87.4 µg/mL | Tmax [2]: 1.06 h | Activity [3]: Non-toxic | half-life [4]: 2.34 h | Vd [5]: 16.3 L | AUC(0-inf) [6]: 84.1 µg·h/mL | CL renal [7]: 78.4 mL/min | Cmax [8]: 34.3 µg/mL | half-life [9]: 2.34 h | Vd [10]: 18.1 L | Vd [11]: 14.8 L | half-life [12]: 1.86 h | dose excreted at 1 day [13]: 99.4% | Vd [14]: 17.8 L | MRT [15]: 2.64 h | AUC(0-inf) [16]: 82.9 µg·h/mL | Tmax [17]: 1.03 h | clearance [18]: 114 mL/min | AUC(0-inf) [19]: 207 µg·h/mL | Cmax [20]: 128 µg/mL | AUC(0-inf) [21]: 40.1 µg·h/mL | MRT [22]: 2.42 h | AUC(0-inf) [23]: 219 µg·h/mL | CL renal at 1 h [24]: 101 mL/min | dose excreted at 10 day [25]: 94.1% | Vd [26]: 18.1 L | clearance [27]: 99.1 mL/min | Tmax [28]: 1.03 h | Activity [29]: Non-toxic | Cmax [30]: 32.2 µg/mL | AUC(0-inf) [31]: 143 µg·h/mL | MRT [32]: 2.09 h | Vd [33]: 13.1 L | clearance [34]: 116 mL/min | MRT [35]: 2.54 h | half-life [36]: 2.2 h | Tmax [37]: 0.93 h | AUC(0-inf) [38]: 149 µg·h/mL | Activity [39]: Non-toxic | Tmax [40]: 1.03 h | clearance [41]: 101 mL/min | CL renal at 1 h [42]: 92.9 mL/min | half-life [43]: 2.72 h | CL renal at 1 h [44]: 96.2 mL/min | CL renal at 1 h [45]: 93.4 mL/min | half-life [46]: 2.45 h
